According to patent publication US6737383B1, “Herbicidal oxadiazolidines” (priority 1999, dated 2004):

Tests used:
[1] = test system: morningglory; assay: Test B pre/postemergence morningglory; type: in vivo, Ipomoea hederacea
Summary of the method: (§1)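 Herbicidal effect was estimated by eye on a ten-point control scale after plants spent twelve to sixteen days in a greenhouse following soil or foliar treatment. Foliar sprays targeted plants at one to four leaves; all doses were formulated in a non-phytotoxic solvent with surfactant.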

[2] = test system: pigweed; assay: Test B pre/postemergence pigweed; type: in vivo, Amaranthus retroflexus
Summary of the method: as §1

[3] = test system: wild oat; assay: Test B pre/postemergence wild oat; type: in vivo, Avena fatua
Summary of the method: as §1

[4] = test system: winter wheat; assay: Test E winter wheat; type: in vivo, Triticum aestivum; details: Postemergence, 0 to 100 scale
Summary of the method: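 Greenhouse-grown plants are treated (postemergence: 1- to 4-leaf stage, sandy loam/potting mix 60:40), then evaluated visually versus untreated controls some 21 to 28 days later.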

[5] = test system: blackgrass; assay: Test E blackgrass; type: in vivo, Alopecurus myosuroides; details: Preemergence; for Plant response rating, Blackgrass: 0 to 100 scale where 0 is no effect and 100 is complete control
[6] = test system: green foxtail; assay: Test E green foxtail; type: in vivo, Setaria viridis; details: Preemergence; for Plant response rating, Green foxtail: 0 to 100 scale where 0 is no effect and 100 is complete control
[7] = test system: Italian ryegrass; assay: Test E Italian ryegrass; type: in vivo, Lolium multiflorum; details: Preemergence; for Plant response rating, I. Ryegrass: 0 to 100 scale where 0 is no effect and 100 is complete control
[8] = test system: winter wheat; assay: Test E winter wheat; type: in vivo, Triticum aestivum; details: Preemergence; for Plant response rating, Wheat (winter): 0 to 100 scale where 0 is no effect and 100 is complete control
[9] = test system: wild oat; assay: Test E wild oat; type: in vivo, Avena fatua; details: Preemergence; for Plant response rating, Wild oat: 0 to 100 scale where 0 is no effect and 100 is complete control
[10] = test system: winter barley; assay: Test E winter barley; type: in vivo, Hordeum vulgare; details: Preemergence; for Plant response rating, Barley (winter): 0 to 100 scale where 0 is no effect and 100 is complete control
[11] = Preemergence, Rate 62 g/ha, scale of 0 to 10 where 0 is no effect and 10 is complete control
[12] = Preemergence, Rate 125 g/ha, 0 is no effect, 10 is complete control
[13] = Preemergence, Rate 250 g/ha, scale 0 to 10, 0 is no effect, 10 is complete control
[14] = Preemergence, Rate 500 g/ha, scale of 0 to 10 where 0 is no effect and 10 is complete control
[15] = Rate 62 g/ha, Postemergence, scale of 0 to 10 where 0 is no effect and 10 is complete control
[16] = Rate 125 g/ha, Postemergence, scale 0 to 10
[17] = Rate 500 g/ha, Postemergence, scale 0 to 10
[18] = Postemergence, Rate 125 g/ha, scale of 0 to 10 where 0 is no effect and 10 is complete control
[19] = Postemergence, Rate 250 g/ha, scale of 0 to 10, 0 is no effect, 10 is complete control
[20] = Postemergence, Rate 500 g/ha, scale of 0 to 10 where 0 is no effect and 10 is complete control
[21] = Postemergence, Rate 1000 g/ha, scale 0 to 10 (0 no effect, 10 complete control)
[22] = Preemergence, Rate 125 g/ha, scale of 0 to 10 where 0 is no effect and 10 is complete control
[23] = Preemergence, Rate 250 g/ha, scale 0 to 10 (0 no effect, 10 complete control)
[24] = Rate 1000 g/ha, Preemergence, scale 0 to 10 (0 no effect, 10 complete control)
[25] = Postemergence, Rate 62 g/ha, scale 0 to 10, 0 is no effect, 10 is complete control
[26] = Postemergence, Rate 250 g/ha, scale 0 to 10, 0 no effect, 10 complete control
[27] = Preemergence, Rate 62 g/ha, scale 0 to 10, 0 is no effect, 10 is complete control
[28] = Preemergence, Rate 125 g/ha, scale 0 to 10 (0 no effect, 10 complete control)
[29] = Preemergence, Rate 250 g/ha, scale of 0 to 10 where 0 is no effect and 10 is complete control
[30] = Preemergence, Rate 500 g/ha, scale 0 (no effect) to 10 (complete control)
[31] = Rate 125 g/ha, Postemergence, scale 0 to 10, 0 no effect, 10 complete control
[32] = Rate 500 g/ha, Postemergence, 0 to 10 scale (0 no effect, 10 complete control)
[33] = Preemergence, Rate 62 g/ha, scale 0 to 10 (0 no effect, 10 complete control)
[34] = Postemergence, Rate 250 g/ha, scale 0 to 10, 0 is no effect, 10 is complete control
[35] = Preemergence, Rate 500 g/ha, scale 0 to 10, 0 is no effect, 10 is complete control

CC(C)N(C(=O)n1oc(=O)n(-c2ccc(OC(F)(F)F)cc2)c1=O)c1ccc(F)cc1 [Compound 202]
Morningglory plant response rating [1, 11]: 0 | Morningglory plant response rating (0 to 10 scale) [1, 12]: 0 | Morningglory plant response rating [1, 13]: 0 | Plant response rating, Morningglory [1, 14]: 1 | Morningglory plant response rating [1, 15]: 2 | Morningglory plant response rating [1, 16]: 5 | Plant response rating (0 to 10; 0 is no effect, 10 is complete control), Morningglory ([1]; Rate 250 g/ha, Postemergence): 8 | Morningglory plant response rating [1, 17]: 9 | Redroot pigweed plant response rating [2, 11]: 0 | Redroot pigweed plant response rating (0 to 10 scale) [2, 12]: 0 | Redroot pigweed plant response rating [2, 13]: 8 | Plant response rating, Redroot pigweed [2, 14]: 3 | Redroot pigweed plant response rating [2, 15]: 3 | Redroot pigweed plant response rating [2, 16]: 4 | Plant response rating (0 to 10; 0 is no effect, 10 is complete control), Redroot pigweed ([2]; Rate 250 g/ha, Postemergence): 6 | Redroot pigweed plant response rating [2, 17]: 7 | Wild oats plant response rating [3, 11]: 0 | Wild oats plant response rating [3, 13]: 0 | Plant response rating, Wild oats [3, 14]: 5 | Wild oats plant response rating [3, 15]: 0 | Wild oats plant response rating [3, 16]: 0 | Plant response rating (0 to 10; 0 is no effect, 10 is complete control), Wild oats ([3]; Rate 250 g/ha, Postemergence): 0 | Plant response rating, Wheat (winter) ([4]; Rate 1000 g/ha, 0 is no effect and 100 is complete control): 60 | Plant response rating, Wheat (winter) ([4]; Rate 500 g/ha, 0 is no effect, 100 is complete control): 55 | Blackgrass plant response rating (0 to 100 scale) ([5]; Rate 250 g/ha): 30 | Plant response rating, Blackgrass ([5]; Rate 500 g/ha): 50 | Plant response rating, Blackgrass ([5]; Rate 1000 g/ha): 30 | Green foxtail plant response rating (0 to 100 scale) ([6]; Rate 250 g/ha): 70 | Plant response rating, Green foxtail ([6]; Rate 500 g/ha): 85 | Plant response rating, Green foxtail ([6]; Rate 1000 g/ha): 100 | I. Ryegrass plant response rating (0 to 100 scale) ([7]; Rate 250 g/ha): 30 | Plant response rating, I. Ryegrass ([7]; Rate 500 g/ha): 60 | Plant response rating, I. Ryegrass ([7]; Rate 1000 g/ha): 60 | Wheat (winter) plant response rating (0 to 100 scale) ([8]; Rate 250 g/ha): 50 | Plant response rating, Wheat (winter) ([8]; Rate 500 g/ha): 40 | Plant response rating, Wheat (winter) ([8]; Rate 1000 g/ha): 70 | Wild oat plant response rating (0 to 100 scale) ([9]; Rate 250 g/ha): 50 | Plant response rating, Wild oat ([9]; Rate 500 g/ha): 60 | Plant response rating, Wild oat ([9]; Rate 1000 g/ha): 80 | Barley (winter) plant response rating (0 to 100 scale) ([10]; Rate 250 g/ha): 20 | Plant response rating, Barley (winter) ([10]; Rate 500 g/ha): 40 | Plant response rating, Barley (winter) ([10]; Rate 1000 g/ha): 70

CCOP(=O)(OCC)C(C)n1c(=O)on(C(=O)N(c2ccc(F)cc2)C(C)C)c1=O (stereo not shown) [Compound 617]
Plant response rating, Morningglory [1, 18]: 0 | Morningglory plant response rating [1, 19]: 0 | Plant response rating, Morningglory [1, 20]: 3 | Morningglory plant response rating [1, 21]: 6 | Morningglory plant response rating [1, 22]: 0 | Plant response rating, Morningglory [1, 23]: 0 | Plant response rating, Morningglory [1, 14]: 0 | Plant response rating, Morningglory [1, 24]: 0 | Plant response rating, Redroot pigweed [2, 18]: 0 | Redroot pigweed plant response rating [2, 19]: 0 | Redroot pigweed plant response rating [2, 21]: 0 | Redroot pigweed plant response rating [2, 22]: 0 | Plant response rating, Redroot pigweed [2, 23]: 0 | Plant response rating, Redroot pigweed [2, 14]: 0 | Plant response rating, Redroot pigweed [2, 24]: 0 | Plant response rating, Wild oats [3, 18]: 0 | Wild oats plant response rating [3, 19]: 0 | Wild oats plant response rating [3, 21]: 0 | Wild oats plant response rating [3, 22]: 0 | Plant response rating, Wild oats [3, 23]: 2 | Plant response rating, Wild oats [3, 14]: 3 | Plant response rating, Wild oats [3, 24]: 9

CCN(CC)C(=O)n1oc(=O)n(-c2cc(Cl)cc(Cl)c2)c1=O [Compound 11]
Morningglory plant response rating [1, 25]: 0 | Morningglory plant response rating [1, 26]: 0 | Plant response rating, Morningglory [1, 27]: 0 | Plant response rating, Morningglory [1, 28]: 0 | Plant response rating, Morningglory [1, 29]: 0 | Morningglory plant response rating [1, 30]: 0 | Morningglory plant response rating [1, 31]: 0 | Morningglory plant response rating [1, 32]: 0 | Redroot pigweed plant response rating [2, 25]: 0 | Redroot pigweed plant response rating [2, 26]: 0 | Plant response rating, Redroot pigweed [2, 27]: 0 | Plant response rating, Redroot pigweed [2, 28]: 0 | Plant response rating, Redroot pigweed [2, 29]: 0 | Redroot pigweed plant response rating [2, 30]: 0 | Redroot pigweed plant response rating [2, 31]: 0 | Redroot pigweed plant response rating [2, 32]: 0 | Wild oats plant response rating [3, 25]: 0 | Wild oats plant response rating [3, 26]: 0 | Plant response rating, Wild oats [3, 28]: 0 | Plant response rating, Wild oats [3, 29]: 0 | Wild oats plant response rating [3, 30]: 0 | Wild oats plant response rating [3, 31]: 0

CC(C)N(C(=O)n1oc(=O)n(CC2=NOCCC2)c1=O)c1ccc(F)cc1F [Compound 602]
Plant response rating, Morningglory [1, 25]: 0 | Plant response rating, Morningglory [1, 18]: 1 | Morningglory plant response rating [1, 19]: 2 | Plant response rating, Morningglory [1, 20]: 3 | Morningglory plant response rating [1, 33]: 0 | Morningglory plant response rating [1, 22]: 0 | Plant response rating, Morningglory [1, 14]: 0 | Plant response rating, Redroot pigweed [2, 25]: 2 | Plant response rating, Redroot pigweed [2, 18]: 2 | Redroot pigweed plant response rating [2, 19]: 3 | Plant response rating, Redroot pigweed [2, 20]: 6 | Redroot pigweed plant response rating [2, 33]: 2 | Redroot pigweed plant response rating [2, 22]: 7 | Plant response rating, Redroot pigweed [2, 14]: 8 | Plant response rating, Wild oats [3, 25]: 0 | Plant response rating, Wild oats [3, 18]: 0 | Wild oats plant response rating [3, 19]: 0 | Plant response rating, Wild oats [3, 20]: 3 | Wild oats plant response rating [3, 33]: 0 | Wild oats plant response rating [3, 22]: 3 | Plant response rating, Wild oats [3, 14]: 8

CCOC(=O)C=C(Cn1c(=O)on(C(=O)N(c2ccc(F)cc2)C(C)C)c1=O)OCC [Compound 396]
Plant response rating, Morningglory [1, 34]: 8 | Morningglory plant response rating [1, 20]: 8 | Plant response rating, Morningglory [1, 33]: 0 | Plant response rating, Morningglory [1, 22]: 0 | Morningglory plant response rating [1, 13]: 0 | Morningglory plant response rating [1, 35]: 0 | Morningglory plant response rating [1, 15]: 0 | Plant response rating, Redroot pigweed [2, 34]: 0 | Redroot pigweed plant response rating [2, 20]: 0 | Plant response rating, Redroot pigweed [2, 33]: 0 | Plant response rating, Redroot pigweed [2, 22]: 0 | Redroot pigweed plant response rating [2, 13]: 4 | Redroot pigweed plant response rating [2, 35]: 8 | Redroot pigweed plant response rating [2, 15]: 0 | Wild oats plant response rating [3, 20]: 0 | Plant response rating, Wild oats [3, 33]: 0 | Plant response rating, Wild oats [3, 22]: 0 | Wild oats plant response rating [3, 13]: 2 | Wild oats plant response rating [3, 35]: 4 | Wild oats plant response rating [3, 15]: 0
